Test results taken from patent US11945822B2, “Pyrazolo-triazine and/or pyrazolo-pxrimidine derivatives as selective inhibitor of cyclin dependent kinase” (QURIENT CO., LTD., priority 2018, dated 2024).
Where two headings read alike, the source gives them in different places.

Experiments:
CDK2/Cyclin A = biological target: T1, CDK2/Cyclin A (Homo sapiens, UniProt P24941); test: Enzymatic assay for CDK2 (FRET based LANCE Ultra kinase assay); assay type: biochemical
T1 construct: purchased Invitrogen PV6290
How it was run: (§1)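 LANCE Ultra TR-FRET: ULight-MBP peptide (68 nM) with ATP at Km, […], 60 min at 23° C. EDTA plus Eu-anti-phospho-MBP added, another 60 min, then 665/615 nm emission read. Compounds tested as 8-dose 4-fold DMSO dilutions.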

H460 = test: Cellular H460 viability assay (CellTiter-Glo, 72 hours); assay type: cell-based; settings: Homo sapiens, NCI-H460
How it was run: (§2)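 Luminescent ATP read-out (CellTiter-Glo) after 72 h compound exposure at 37 °C/5% CO2; duplicate wells; vehicle control DMSO <0.1% final; seeding density set per cell line.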

MV4-11 = test: Cellular MV4-11 viability assay (CellTiter-Glo, 72 hours); assay type: cell-based; settings: Homo sapiens
How it was run: as §2

A2780 = test: Cellular A2780 viability assay (CellTiter-Glo, 72 hours); assay type: cell-based; settings: Homo sapiens
Text: Human T-cell acute lymphoblastic leukemia cell line, MOLT-4 (ATCC, Cat #CRL-1582), Human multiple myeloma cell line, RPMI-8226 (Invitrogen, Cat #22400-089) and MM.1S (ATCC, Cat #CRL-2974), NSCLC (Non-small cell lung cancer) cell line H460 (ATCC, Cat #HTB-177), Human colon colorectal carcinoma cell line HCT116 (ATCC, Cat #CCL-247), Human acute monocytic leukemia cell line MV4-11 (ATCC, Cat #CRL-9591), OVCAR-3 (ATCC, Cat #HTB-161) and A2780 (ECACC, Cat #93112519) were obtained from ATCC. Cells were grown in RPMI-1640 media (Invitrogen, Cat #22400-089) supplemented with 10% FBS (Invitrogen, Cat #10099141) and 1% penicillin/streptomycin (Invitrogen, Cat #15070063) and cultured at 37° C., 5% CO2 in a humidified chamber. All cell lines were routinely tested for mycoplasma.
The effect of the CDK7 inhibitor to inhibit the growth of target cancer cells was evaluated through the 72 hours time period of viability assay. Briefly, the candidate cell line ware plated in 96 well plate at the following density of cells respectively. 1×10^4 cells/well for MOLT-4, RPMI-8226, MV4-11 and MM.1S, 5×10^3 for H460, HCT116 and OVCAR-3 and IX 10^3 for A2780. After 24 hours, the cells were treated with various concentrations of the compound (ranging from 0.0015 uM to 10 uM). DMSO solvent without compound served as a control and final DMSO concentration less than 0.1%. After 72 hours of incubation at 37° C., 5% CO2 incubator, cells were analyzed for the viability using the CellTiter-Glo Luminescent Cell Viability Assay (Promega, Cat #G7570). All viability assays were performed in duplicate and Luminescence was read using an Envision (Perkin Elmer, USA). Data was analyzed using XLfit software.

CDK5/p25 = biological target: T2, CDK5/p25 (Homo sapiens, UniProt Q00535); test: Enzymatic assay for CDK5 (FRET based LANCE Ultra kinase assay); assay type: biochemical
T2 construct: purchased Invitrogen PR8543B
How it was run: as §1

CDK1/Cyclin B = biological target: T3, CDK1/Cyclin B (Homo sapiens, UniProt P06493); test: Enzymatic assay for CDK1 (FRET based LANCE Ultra kinase assay); assay type: biochemical
T3 construct: purchased Invitrogen PR4768C
How it was run: as §1

CDK7/Cyclin H/MNAT1 = biological target: T4, CDK7/Cyclin H/MNAT1 (Homo sapiens, UniProt P50613); test: Enzymatic assay for CDK7 (FRET based LANCE Ultra kinase assay); assay type: biochemical
T4 construct: purchased Invitrogen PR6749B
How it was run: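 Inhibition was measured at Km ATP by time-resolved FRET between a Eu anti-phospho antibody and a phosphorylated ULight peptide. The enzyme was the purified CDK7/cyclin complex, and data were curve-fitted.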

[1] = read-out: CDK2 enzymatic activity (IC50 activity range)
[2] = read-out: CDK5 enzymatic activity (IC50 activity range)
[3] = read-out: CDK1 enzymatic activity (IC50 activity range)
[4] = read-out: CDK7 enzymatic activity (IC50 activity range)
[5] = read-out: CDK2 enzymatic activity (IC50 range)
[6] = read-out: CDK5 enzymatic activity (IC50 range)
[7] = read-out: CDK1 enzymatic activity (IC50 range)
[8] = read-out: CDK7 enzymatic activity (IC50 range)

T3 sequence (P06493 whole entry): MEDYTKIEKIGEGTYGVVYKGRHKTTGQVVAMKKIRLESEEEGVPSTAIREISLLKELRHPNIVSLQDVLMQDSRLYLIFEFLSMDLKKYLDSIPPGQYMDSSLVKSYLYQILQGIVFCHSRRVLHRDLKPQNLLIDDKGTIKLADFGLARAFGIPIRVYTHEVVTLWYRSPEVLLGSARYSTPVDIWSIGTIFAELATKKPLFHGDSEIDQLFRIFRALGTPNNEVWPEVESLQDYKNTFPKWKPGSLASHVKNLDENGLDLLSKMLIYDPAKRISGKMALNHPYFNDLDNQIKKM
T3 sequence (P14635 whole entry partner): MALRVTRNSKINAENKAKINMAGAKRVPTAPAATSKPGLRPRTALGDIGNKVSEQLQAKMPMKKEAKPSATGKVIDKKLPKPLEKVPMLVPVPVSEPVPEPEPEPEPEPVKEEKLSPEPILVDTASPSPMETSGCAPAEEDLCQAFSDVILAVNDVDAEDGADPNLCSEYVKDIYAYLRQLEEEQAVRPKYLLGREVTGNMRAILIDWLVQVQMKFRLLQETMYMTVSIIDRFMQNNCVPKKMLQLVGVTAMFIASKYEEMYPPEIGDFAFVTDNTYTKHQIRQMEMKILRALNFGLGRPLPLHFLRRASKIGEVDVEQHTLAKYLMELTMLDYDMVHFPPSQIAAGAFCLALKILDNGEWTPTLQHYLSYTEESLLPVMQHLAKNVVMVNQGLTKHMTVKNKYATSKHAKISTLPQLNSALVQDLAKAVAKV
T4 sequence (P50613 whole entry): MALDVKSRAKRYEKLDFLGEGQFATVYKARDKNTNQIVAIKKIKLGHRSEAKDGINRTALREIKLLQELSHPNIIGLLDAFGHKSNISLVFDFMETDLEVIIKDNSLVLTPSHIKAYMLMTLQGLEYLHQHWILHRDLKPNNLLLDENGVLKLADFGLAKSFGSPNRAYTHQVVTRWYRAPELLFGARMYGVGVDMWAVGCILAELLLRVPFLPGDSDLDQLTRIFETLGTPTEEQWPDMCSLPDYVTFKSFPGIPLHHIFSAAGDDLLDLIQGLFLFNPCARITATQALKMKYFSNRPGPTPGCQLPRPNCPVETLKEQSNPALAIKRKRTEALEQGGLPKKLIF
T4 sequence (P51946 whole entry partner): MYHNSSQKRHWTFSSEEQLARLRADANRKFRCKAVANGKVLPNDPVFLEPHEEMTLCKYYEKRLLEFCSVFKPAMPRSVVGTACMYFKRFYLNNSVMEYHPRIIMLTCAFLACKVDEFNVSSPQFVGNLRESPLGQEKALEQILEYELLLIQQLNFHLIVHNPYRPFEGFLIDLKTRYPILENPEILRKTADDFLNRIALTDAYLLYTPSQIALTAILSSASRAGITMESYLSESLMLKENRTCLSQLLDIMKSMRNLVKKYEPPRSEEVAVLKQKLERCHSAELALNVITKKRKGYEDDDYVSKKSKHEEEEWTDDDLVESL
T4 sequence (P51948 whole entry partner): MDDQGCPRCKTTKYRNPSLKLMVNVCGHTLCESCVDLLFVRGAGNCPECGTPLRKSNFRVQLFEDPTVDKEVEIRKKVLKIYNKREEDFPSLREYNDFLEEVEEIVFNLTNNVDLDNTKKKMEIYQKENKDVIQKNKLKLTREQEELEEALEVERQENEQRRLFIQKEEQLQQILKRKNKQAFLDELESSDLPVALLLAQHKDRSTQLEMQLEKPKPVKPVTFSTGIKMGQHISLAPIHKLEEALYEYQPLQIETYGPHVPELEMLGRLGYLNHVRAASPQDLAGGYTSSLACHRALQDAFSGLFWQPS
T2 sequence (Q00535 whole entry): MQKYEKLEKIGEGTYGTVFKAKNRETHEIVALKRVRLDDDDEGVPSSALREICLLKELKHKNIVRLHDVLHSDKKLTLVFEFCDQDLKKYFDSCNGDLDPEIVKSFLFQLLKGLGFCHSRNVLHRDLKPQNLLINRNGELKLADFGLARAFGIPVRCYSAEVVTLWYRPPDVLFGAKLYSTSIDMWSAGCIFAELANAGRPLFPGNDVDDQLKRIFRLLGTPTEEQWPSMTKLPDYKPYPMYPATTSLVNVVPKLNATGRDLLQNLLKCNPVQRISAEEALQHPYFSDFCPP
T2 sequence (Q15078 99-307 partner limits assumed): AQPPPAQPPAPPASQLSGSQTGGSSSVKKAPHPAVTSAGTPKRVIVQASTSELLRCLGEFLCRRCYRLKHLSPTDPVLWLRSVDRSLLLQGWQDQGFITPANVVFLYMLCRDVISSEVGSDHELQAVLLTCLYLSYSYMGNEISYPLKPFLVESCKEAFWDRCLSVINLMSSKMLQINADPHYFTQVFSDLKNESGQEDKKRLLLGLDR

SMILES | IC50 (CDK2/Cyclin A; [1]) | IC50 (H460) | IC50 (MV4-11) | IC50 (A2780) | IC50 (CDK5/p25; [2]) | IC50 (CDK1/Cyclin B; [3]) | CDK1/CDK7: Selectivity of CDK7 inhibition over CDK1 inhibition (CDK7/Cyclin H/MNAT1; CDK1/CDK7) | CDK2/CDK7: Selectivity of CDK7 inhibition over CDK2 inhibition (CDK7/Cyclin H/MNAT1; CDK2/CDK7) | CDK5/CDK7: Selectivity of CDK7 inhibition over CDK5 inhibition (CDK7/Cyclin H/MNAT1; CDK5/CDK7) | IC50 (CDK7/Cyclin H/MNAT1; [4]) | IC50 (CDK2/Cyclin A; [5]) | IC50 (CDK5/p25; [6]) | IC50 (CDK1/Cyclin B; [7]) | CDK1/CDK7: Selectivity of CDK7 inhibition over CDK1 inhibition (CDK7/Cyclin H/MNAT1; CDK7 over CDK1) | CDK2/CDK7: Selectivity of CDK7 inhibition over CDK2 inhibition (CDK7/Cyclin H/MNAT1; CDK7 over CDK2) | CDK5/CDK7: Selectivity of CDK7 inhibition over CDK5 inhibition (CDK7/Cyclin H/MNAT1; CDK7 over CDK5) | IC50 (CDK7/Cyclin H/MNAT1; [8])
CC(C)c1cnn2c(NCc3cccc4ccc(C(C)(C)O)nc34)nc(N3CCC(N)CC3)nc12 [Compound 255] | > 1000 nM | < 1000 nM | < 1000 nM | ≤ 1000 nM | 100 to 1000 nM | > 1000 nM | A (A=greater than 200 fold) | A (A=greater than 200 fold) | B (B=less than 200 fold, but greater than 20 fold) | < 100 nM |  |  |  |  |  |  | 
CC(C)c1cnn2c(NCc3ccccc3-c3ccc4ccccc4n3)nc(N3CCCC[C@H]3CCO)nc12 [Compound 260] | > 1000 nM | 1000 to 10000 nM | 1000 to 10000 nM | 1000 to 10000 nM | > 1000 nM | > 1000 nM | B (B=less than 200 fold, but greater than 20 fold) | B (B=less than 200 fold, but greater than 20 fold) | B (B=less than 200 fold, but greater than 20 fold) | 100 to 1000 nM |  |  |  |  |  |  | 
CC(C)c1cnn2c(NCc3ccccc3-c3ccc4cc(C(C)(C)O)ccc4n3)nc(N3CCC(O)(CN)CC3)nc12 [Compound 243] |  | < 1000 nM | < 1000 nM | ≤ 1000 nM |  |  |  |  |  |  | > 1000 nM | > 1000 nM | > 1000 nM | A (A=greater than 200 fold) | A (A=greater than 200 fold) | A (A=greater than 200 fold) | < 100 nM
CCN1CC[C@H](CNc2nc(NCc3ccccc3-c3ccc4ccccc4n3)n3ncc(C(C)C)c3n2)[C@@H](O)C1 [Compound 261] | > 1000 nM | < 1000 nM | 1000 to 10000 nM | ≤ 1000 nM | > 1000 nM | > 1000 nM | A (A=greater than 200 fold) | A (A=greater than 200 fold) | A (A=greater than 200 fold) | < 100 nM |  |  |  |  |  |  | 
CC(C)c1cnn2c(NCc3c(Cl)cccc3-c3cc(C(C)(C)O)n(C)n3)nc(N3CCC(N)CC3)nc12 [Compound 244] |  | < 1000 nM | < 1000 nM | ≤ 1000 nM |  |  |  |  |  |  | > 1000 nM | > 1000 nM | > 1000 nM | A (A=greater than 200 fold) | A (A=greater than 200 fold) | A (A=greater than 200 fold) | < 100 nM
CC(C)c1cnn2c(NCc3ccccc3-c3ccc4ccccc4n3)nc(N3CCCC[C@H]3CO)nc12 [Compound 263] | > 1000 nM | > 10000 nM | > 10000 nM | > 10000 nM | > 1000 nM | > 1000 nM | B (B=less than 200 fold, but greater than 20 fold) | B (B=less than 200 fold, but greater than 20 fold) | B (B=less than 200 fold, but greater than 20 fold) | 100 to 1000 nM |  |  |  |  |  |  | 
CC(C)c1cnn2c(NCc3c(Cl)cccc3-n3ccc(C(C)(C)O)n3)nc(Nc3cccc4[nH]ccc34)nc12 [Compound 276] | > 1000 nM |  | < 1000 nM | 1000 to 10000 nM | > 1000 nM | > 1000 nM | B (B=less than 200 fold, but greater than 20 fold) | B (B=less than 200 fold, but greater than 20 fold) | B (B=less than 200 fold, but greater than 20 fold) | > 1000 nM |  |  |  |  |  |  | 
CC(C)c1cnn2c(NCc3c(Cl)cccc3C#N)nc(N3CCC(N)CC3)nc12 [Compound 242] |  | < 1000 nM | < 1000 nM | ≤ 1000 nM |  |  |  |  |  |  | 100 to 1000 nM | 100 to 1000 nM | > 1000 nM | A (A=greater than 200 fold) | B (B=less than 200 fold, but greater than 20 fold) | B (B=less than 200 fold, but greater than 20 fold) | < 100 nM
CC(C)c1cnn2c(NCc3c(Cl)cccc3-c3ccc4ccccc4n3)nc(N3CCCC[C@H]3CCO)nc12 [Compound 262] | > 1000 nM | > 10000 nM | > 10000 nM | > 10000 nM | > 1000 nM | > 1000 nM | B (B=less than 200 fold, but greater than 20 fold) | B (B=less than 200 fold, but greater than 20 fold) | B (B=less than 200 fold, but greater than 20 fold) | 100 to 1000 nM |  |  |  |  |  |  | 
CC(C)c1cnn2c(NCc3c(Cl)cccc3N3CC[C@H](C(C)(C)O)C3)nc(N3CCC(N)CC3)nc12 [Compound 250] | > 1000 nM | 1000 to 10000 nM | 1000 to 10000 nM | 1000 to 10000 nM | > 1000 nM | > 1000 nM | A (A=greater than 200 fold) | A (A=greater than 200 fold) | B (B=less than 200 fold, but greater than 20 fold) | < 100 nM |  |  |  |  |  |  | 
CC(C)c1cnn2c(NCc3ccccc3-c3ccc4ccccc4n3)nc(O[C@H]3CC[C@H](O)CC3)nc12 [Compound 273] | > 1000 nM | 1000 to 10000 nM | 1000 to 10000 nM | 1000 to 10000 nM | > 1000 nM | > 1000 nM | A (A=greater than 200 fold) | A (A=greater than 200 fold) | A (A=greater than 200 fold) | < 100 nM |  |  |  |  |  |  | 
